According to US11564394B2, “Distorted gold (I)-phosphine complexes and methods for use as antifungal agents” (University of Kentucky Research Foundation, priority 2019, dated 2023):
Where two headings read alike, the source gives them in different places.

What was measured:
[1] = test system: C. auris AR Bank #0390 (strain L); experiment: Time-kill assay; format: cell-based, Candida auris; conditions: 1×MIC
[2] = test system: murine and human red blood cells (RBCs)
Procedure: The RBCs were resuspended in PBS to achieve a cell concentration of on the order of 10^7 cells/mL. Compounds were dissolved at concentration of 3.14 mg/mL (200×) in DMSO. Serial double dilutions were made in DMSO. A 1:100 dilution of compound in PBS was added to 100 of RBCs in a 96-well plate (total volume of 200 μL). Compounds were tested in the range of 0.06-15.6 μg/mL in quadruplicate with 0.5% DMSO and ˜5×10^6 RBCs per tube. The RBCs were also treated with 1% Triton-X® (positive control) and PBS (negative control). The RBCs were treated for 30 min at 37° C. and the absorbance was read at 595 nm. Hemolysis is visually observed by a decrease in optical density of the wells (turbid, dark red to transparent pink). Percent hemolysis (FIG. 5A-B) was calculated using this equation after subtraction of the background absorbance ([…]): […]

[3] = test system: Candida biofilms; conditions: FDA-approved antifungal agents; cited from earlier work
[4] = test system: patients; conditions: 6 mg daily dose, oral; cited from earlier work
[5] = test system: C. glabrata ATCC 2001 (strain H); conditions: subcultures exposed to ½ MIC
[6] = test system: Candida spp. biofilms; conditions: biofilms of Candida spp.
Procedure: For assays with a pre-formed biofilm, 100 μL of fungal cells were aliquoted in a 96-well plate, leaving one column empty for the sterile control. After 24 h incubation at 37° C., visible biofilms had formed in the well. The biofilm was washed three times with 100 μL of PBS. […] Plates were incubated at 37° C. for 24 h. Finally, the plates were washed three times with PBS before adding 100 μL of XTT dye. The XTT was prepared by dissolving XTT at 0.5 mg/mL concentration in sterile PBS. Before adding to a plate, 1 μL of 10 mM menadione in acetone was added to 10 mL of the 0.5 mg/mL solution of XTT. After addition of XTT (containing menadione), the plates were incubated for 3 h at 37° C. in the dark. 80 μL of liquid from each well was transferred to a new plate and then with the plate reader for absorbance at 450 nm. For these experiments, we determined the sessile MIC (SMIC90), which is defined as the compound concentration required to inhibit the metabolic activity of biofilm by 90% compared to the growth control (Table 3). […] Each assay was performed in duplicate.

[7] = test system: C. albicans ATCC 10231 (strain B); conditions: subcultures exposed to ½ MIC
[8] = test system: Candida strains B, H, K and L; conditions: for mode of killing (time-kill): 1× and 2×MIC, 24 h; for decrease of fungal colony forming units (CFU): by the 3 h time point, no increase over 24 h
Procedure: The protocol for time-kill assays followed methods previously described with minor modifications.^34,90 Overnight cultures were grown in YEPD medium at 35° C. with shaking at 200 rpm. The overnight cultures were diluted in RPMI 1640 medium to an OD600 of 0.125 (˜x10^6 CFU/mL). Then, 200 μL of cells were added to 4.8 mL of RPMI 1640 medium in sterile culture tubes to afford a fungal cell concentration ˜1×10^5 CFU/mL. Compounds were then added to the fungal cells. […] Treated fungal cultures were incubated in the culture tubes at 35° C. with 200 rpm shaking for 24 h. Samples were aliquoted from the different treatments at regular time points (0, 3, 6, 9, 12, and 24 h) and plated in duplicate onto PDA plates. For each time point, cultures were vortexed, 100 μL of culture was aspirated, and 10-fold serial dilutions were made in sterile ddH2O. From the appropriate dilutions, 100 μL of fungal suspension was spread on agar plates and incubated at 35° C. for 48 h before colony counts were determined. Only plates containing between 30 and 300 colonies were counted, making 30 CFU/mL the limit of detection. At 24 h, 50 μL of sterile 2 mM resazurin in phosphate buffered saline (PBS) was added to the treatments and incubated at 35° C. with 200 rpm shaking for 2 h in the dark for visual inspection.

[9] = test system: C. albicans ATCC 10231 (strain B)
Procedure: (§1) The protocol for time-kill assays followed methods previously described with minor modifications.^34,90 Overnight cultures were grown in YEPD medium at 35° C. with shaking at 200 rpm. The overnight cultures were diluted in RPMI 1640 medium to an OD600 of 0.125 (˜x10^6 CFU/mL). Then, 200 μL of cells were added to 4.8 mL of RPMI 1640 medium in sterile culture tubes to afford a fungal cell concentration ˜1×10^5 CFU/mL. Compounds were then added to the fungal cells. […] Treated fungal cultures were incubated in the culture tubes at 35° C. with 200 rpm shaking for 24 h. Samples were aliquoted from the different treatments at regular time points (0, 3, 6, 9, 12, and 24 h) and plated in duplicate onto PDA plates. For each time point, cultures were vortexed, 100 μL of culture was aspirated, and 10-fold serial dilutions were made in sterile ddH2O. From the appropriate dilutions, 100 μL of fungal suspension was spread on agar plates and incubated at 35° C. for 48 h before colony counts were determined. Only plates containing between 30 and 300 colonies were counted, making […] the limit of detection. At 24 h, 50 μL of sterile 2 mM resazurin in phosphate buffered saline (PBS) was added to the treatments and incubated at 35° C. with 200 rpm shaking for 2 h in the dark for visual inspection.

[10] = test system: C. auris AR Bank #0384 (strain K)
Procedure: as §1

Compound | changes in MIC values over fifteen serial passages [5] | activity against biofilms [6] | changes in MIC values over fifteen serial passages [7] | mode of killing (time-kill) [8] | decrease of fungal colony forming units (CFU) [8] [CFU/mL] | further results
C[C@@H]1[C@H](O)[C@@H](C)/C=C/C=C/C=C/C=C/C=C/C=C/C=C/[C@H](O[C@@H]2O[C@H](C)[C@@H](O)[C@H](N)[C@@H]2O)C[C@@H]2O[C@](O)(C[C@@H](O)C[C@@H](O)[C@H](O)CC[C@@H](O)C[C@@H](O)CC(=O)O[C@H]1C)C[C@H](O)[C@H]2C(=O)O [AmB, amphotericin B, reference compound] |  |  |  |  |  | time at which the limit of detection was reached [1]: 9 h; hemolysis ([2]; at 7.8 μg/mL): 30-60%; hemolysis ([2]; at 15.6 μg/mL): 100%; SMIC90 (literature) [3]: 0.5 to 128 µg/mL
CC(=O)OC[C@H]1O[C@@H]([S-])[C@H](OC(C)=O)[C@@H](OC(C)=O)[C@@H]1OC(C)=O.CCP(CC)CC.[Au+] [Auranofin, auranofin, reference compound] |  |  |  |  |  | tolerability in patients [4]: well-tolerated; hemolytic activity ([2]; at 15.6 μg/mL): no hemolytic activity
bis-[1,2-bis[(2R,5R)-2,5-dimethylfphospholano]benzene]gold(1) [Compound 6] | no significant changes in MIC values | good activity | no significant changes in MIC values | fungicidal | 102 | time at which the limit of detection was reached ([9]; 2×MIC): 3 h; time at which the limit of detection was reached ([10]; 1×MIC): 6 h
bis-[1,2-bis[(2S,5S)-2,5-dimethylphospholano]benzene]gold(I) [Compound 4] | no significant changes in MIC values | good activity | no significant changes in MIC values | fungicidal | 102 | time at which the limit of detection was reached ([9]; 1×MIC, limit of detection 30 CFU/mL): 9 h; time at which the limit of detection was reached ([10]; concentration not specified (tested at 1× and 2×MIC), failed to reach the limit): > 24 h
